Test results published in patent EP4635500A1, “THERAPEUTIC AGENT FOR BACTERIAL INFECTION” (Sumitomo Pharma Co., Ltd., priority 2022, dated 2024).
Read-outs that look alike come from different tables or passages of the source.

How the values were obtained:
Assay in all cases: MIC and MBC, broth microdilution (Example 4, Table 3)
Assay type in all cases: cell-based
Acinetobacter baumannii = tested on: Acinetobacter baumannii
Escherichia coli = tested on: Escherichia coli
Klebsiella pneumoniae = tested on: Klebsiella pneumoniae
[1] = tested on: Enterobacter cloacae complex; settings: Enterobacter cloacae complex CDC-164 (NMC-A)
[2] = Acinetobacter baumannii CDC-303 (OXA-23, OXA-66)
[3] = Escherichia coli CDC-150 (NDM-5)

CC(C)(O/N=C(\C(=O)N[C@@H]1C(=O)N2C(C(=O)[O-])=C(C[n+]3ccccc3)CS[C@H]12)c1csc(N)n1)C(=O)O [CAZ, ceftazidime]
128 µg/mL: MBC (Acinetobacter baumannii; Acinetobacter baumannii, Acinetobacter baumannii CDC-303 (OXA-23, OXA-66)) | MBC (Escherichia coli; ATCCBAA2340, Escherichia coli ATCC BAA-2340 (KPC-3), read-out: MBC) | MIC (Escherichia coli; Escherichia coli, ATCCBAA2340)
> 128 µg/mL: MBC (Acinetobacter baumannii; Acinetobacter baumannii, Acinetobacter baumannii CDC-33 (NDM-1, OXA-94)) | MIC (Acinetobacter baumannii; Acinetobacter baumannii, Acinetobacter baumannii CDC-33 (NDM-1, OXA-94), read-out: MIC) | MBC (Acinetobacter baumannii; Acinetobacter baumannii, Acinetobacter baumannii CDC-101 (OXA-24, OXA-65)) | MIC (Acinetobacter baumannii; Acinetobacter baumannii, Acinetobacter baumannii CDC-101 (OXA-24, OXA-65), read-out: MIC) | MBC (Escherichia coli; ATCCBAA2469, Escherichia coli ATCC BAA-2469 (NDM-1), read-out: MBC) | MIC (Escherichia coli; ATCCBAA2469, Escherichia coli ATCC BAA-2469 (NDM-1), read-out: MIC) | MBC (Escherichia coli; Escherichia coli CDC-162 (NDM-7), read-out: MBC) | MIC (Escherichia coli; Escherichia coli CDC-162 (NDM-7), read-out: MIC) | MBC (Escherichia coli; Escherichia coli NCTC13476 (IMP-1), read-out: MBC) | MIC (Escherichia coli; Escherichia coli NCTC13476 (IMP-1), read-out: MIC) | MIC (Klebsiella pneumoniae; ATCCBAA2470, Klebsiella pneumoniae ATCC BAA-2470 (NDM-1), read-out: MIC) | MIC (Klebsiella pneumoniae; Klebsiella pneumoniae) | MIC (Klebsiella pneumoniae; Klebsiella pneumoniae NCTC13440 (VIM-1), read-out: MIC) | MIC (Klebsiella pneumoniae; Klebsiella pneumoniae, ATCCBAA2344) | MBC (Klebsiella pneumoniae; Klebsiella pneumoniae, ATCCBAA2344, Klebsiella pneumoniae ATCC BAA-2344 (KPC-2)) | MBC (Klebsiella pneumoniae; Klebsiella pneumoniae, ATCCBAA2470, Klebsiella pneumoniae ATCC BAA-2470 (NDM-1)) | MBC (Klebsiella pneumoniae; Klebsiella pneumoniae, Klebsiella pneumoniae CDC-112 (KPC-3)) | MBC (Klebsiella pneumoniae; Klebsiella pneumoniae, Klebsiella pneumoniae CDC-505 (NDM-1)) | MBC (Klebsiella pneumoniae; Klebsiella pneumoniae, Klebsiella pneumoniae KUB3607 (IMP-1)) | MBC (Klebsiella pneumoniae; Klebsiella pneumoniae, NCTC13440, Klebsiella pneumoniae NCTC13440 (VIM-1))
64 µg/mL: MIC (Acinetobacter baumannii; [2]) | MIC (Acinetobacter baumannii; Acinetobacter baumannii CDC-304 (OXA-66, OXA-72), read-out: MIC) | MBC (Acinetobacter baumannii; Acinetobacter baumannii, Acinetobacter baumannii CDC-304 (OXA-66, OXA-72))
2: MBC/MIC ratio (Acinetobacter baumannii; [2])
0.5 µg/mL: MBC (Klebsiella pneumoniae; Klebsiella pneumoniae, ATCCBAA2524, Klebsiella pneumoniae ATCC BAA-2524 (OXA-48)) | MIC (Klebsiella pneumoniae; Klebsiella pneumoniae, ATCCBAA2524, Klebsiella pneumoniae ATCC BAA-2524 (OXA-48), read-out: MIC)
32 µg/mL: MBC [1] | MIC [1]
>128 µg/mL: MBC (Escherichia coli; [3]) | MIC (Escherichia coli; [3]) | MIC (Klebsiella pneumoniae; Klebsiella pneumoniae CDC-505 (NDM-1)) | MIC (Klebsiella pneumoniae; Klebsiella pneumoniae KUB3607 (IMP-1))
1: MBC/MIC ratio (Acinetobacter baumannii; Acinetobacter baumannii CDC-304 (OXA-66, OXA-72)) | MBC/MIC ratio (Escherichia coli) | MBC/MIC ratio (Klebsiella pneumoniae; Klebsiella pneumoniae ATCC BAA-2524 (OXA-48)) | MBC/MIC ratio [1]
